What was measured:
[1] = biological target: T1, human A2B AR (Homo sapiens, UniProt P29275); assay: Radioligand binding assay at human A2B AR vs. [^3H]PSB-603; conditions: for Ki: CHO cell membranes, n = 2 (n = 3 where marked a), read-out: Ki ± SEM, A2B vs. [^3H]PSB-603; for inhibition at 1 µM: at 1,000 nM, read-out: % inhibition of radioligand binding at indicated concentration, A2B vs. [^3H]PSB-603
T1 construct: expressed in transfected cells; host or cells: CHO cells
T1 sequence (P29275 1-332): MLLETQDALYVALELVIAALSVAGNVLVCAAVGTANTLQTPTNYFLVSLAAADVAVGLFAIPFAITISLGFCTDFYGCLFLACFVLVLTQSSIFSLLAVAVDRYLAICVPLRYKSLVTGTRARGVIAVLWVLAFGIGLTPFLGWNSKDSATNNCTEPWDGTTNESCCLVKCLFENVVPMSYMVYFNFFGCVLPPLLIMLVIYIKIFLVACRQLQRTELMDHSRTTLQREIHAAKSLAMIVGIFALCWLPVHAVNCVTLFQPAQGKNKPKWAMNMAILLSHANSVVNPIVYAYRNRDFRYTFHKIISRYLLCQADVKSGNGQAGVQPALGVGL
Method: (§1) Membrane preparations and radioligand binding assays at rat A1 (rat brain cortex) and rat A2A ARs (rat brain striatum) were performed as previously described (Ozola et al., [2003]; Alnouri et al., [2015]). For assays at human A1, A2A, A2B, and A3 ARs, CHO cell membranes expressing one of the human AR subtypes were used as previously reported (Klotz et al., [1998]; Alnouri et al., [2015]; De Filippo et al., [2016]).
(§2) The synthesized tetrahydropyrazino[2,1-f ]purinediones 13–20 were evaluated in radioligand binding assays for their affinity to A1 ARs of rat brain cortical membrane and to A2A ARs of rat brain striatal membrane preparations. Selected compounds were further investigated for their affinity to human A1 and A2A ARs recombinantly expressed in Chinese hamster ovary (CHO) cells. All compounds were additionally investigated for their affinity to human A2B and A3 ARs recombinantly expressed in CHO cells to determine their AR subtype selectivity. […] It is well known that all xanthine derivatives lacking a ribose moiety, including tricyclic compounds, can only block ARs, but never act as AR agonists; therefore, additional functional studies were not required. […] Potent MAO-B inhibitors were additionally investigated for inhibition of human MAO-A to assess their selectivity. Results are presented in Tables 1–6, and data of standard ligands are included for comparison.

[2] = biological target: T2, recombinant human MAO-B (Homo sapiens, UniProt P27338); assay: Monoamine oxidase assay (Amplex Red), MAO-B; type: biochemical; conditions: for IC50: read-out: IC50 ± SEM, Human MAO-B; for inhibition at 10 µM: at 10,000 nM (10 μM), read-out: % inhibition at indicated concentration, Human MAO-B
T2 construct: purchased Sigma-Aldrich M7441; host or cells: baculovirus-infected insect cells
T2 sequence (P27338 1-520): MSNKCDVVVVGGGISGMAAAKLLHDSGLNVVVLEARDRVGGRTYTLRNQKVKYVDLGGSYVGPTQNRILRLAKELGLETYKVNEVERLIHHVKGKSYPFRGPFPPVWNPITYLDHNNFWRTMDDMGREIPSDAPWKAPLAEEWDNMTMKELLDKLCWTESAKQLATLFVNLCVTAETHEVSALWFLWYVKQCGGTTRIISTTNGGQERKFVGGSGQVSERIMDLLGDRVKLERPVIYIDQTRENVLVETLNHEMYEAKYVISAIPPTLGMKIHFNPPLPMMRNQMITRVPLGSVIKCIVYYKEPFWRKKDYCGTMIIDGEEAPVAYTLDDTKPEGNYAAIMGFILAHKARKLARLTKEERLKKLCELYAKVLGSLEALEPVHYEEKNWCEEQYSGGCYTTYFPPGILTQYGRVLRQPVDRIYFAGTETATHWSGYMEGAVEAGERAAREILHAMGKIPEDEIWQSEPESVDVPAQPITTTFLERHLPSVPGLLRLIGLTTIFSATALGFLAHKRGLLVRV
Method: (§3) The determination of MAO-A and MAO-B inhibition was performed using commercially available recombinant human MAO-A and MAO-B enzymes expressed in baculovirus-infected insects sells (Sigma-Aldrich, M7316 and M7441) applying the commercially available Amplex® Red monoamine oxidase assay kit (Invitrogen A12214). The assays were performed as previously described. The determination of rat MAO-B inhibition was performed using mitochondrial-enriched fractions from male Sprague Dawley rat livers. […]

[3] = biological target: T3, human A3 AR (Homo sapiens, UniProt P0DMS8); assay: Radioligand binding assay at human A3 AR vs. [^3H]PSB-11; conditions: for Ki: CHO cell membranes, n = 2 (n = 3 where marked a), read-out: Ki ± SEM, A3 vs. [^3H]PSB-11; for inhibition at 10 µM: at 10,000 nM, read-out: % inhibition of radioligand binding at indicated concentration, A3 vs. [^3H]PSB-11
T3 construct: expressed in transfected cells; host or cells: CHO cells
T3 sequence (P0DMS8 1-318): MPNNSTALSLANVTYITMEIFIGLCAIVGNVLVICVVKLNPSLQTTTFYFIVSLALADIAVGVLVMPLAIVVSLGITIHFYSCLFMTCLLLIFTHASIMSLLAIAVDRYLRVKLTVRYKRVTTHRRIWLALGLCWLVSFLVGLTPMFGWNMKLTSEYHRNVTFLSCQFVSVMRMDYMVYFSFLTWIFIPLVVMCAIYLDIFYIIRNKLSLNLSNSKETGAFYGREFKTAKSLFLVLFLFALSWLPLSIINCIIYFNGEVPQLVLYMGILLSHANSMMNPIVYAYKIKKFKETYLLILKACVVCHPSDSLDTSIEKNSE
Method: as §1, §2

[4] = biological target: T4, rat A2A AR (Rattus norvegicus, UniProt P30543); assay: Radioligand binding assay at rat A2A AR (rat brain striatum) vs. [^3H]MSX-2; conditions: rat (r); for % inhibition of radioligand binding at indicated concentration, A2A vs. [^3H]MSX-2: at 1,000 nM; for Ki: rat brain striatum, n = 3, read-out: Ki ± SEM, A2A vs. [^3H]MSX-2
T4 construct: A2A ARs of rat brain striatal membrane preparations; from tissue; host or cells: rat brain striatum membranes
Method: as §1, §2

[5] = biological target: T5, rat A1 AR (Rattus norvegicus, UniProt P25099); assay: Radioligand binding assay at rat A1 AR (rat brain cortex) vs. [^3H]CCPA; conditions: rat (r); for Ki: rat brain cortex, n = 3; for inhibition at 1.5 µM: read-out: % inhibition of radioligand binding at indicated concentration, A1 vs. [^3H]CCPA, at 1,500 nM
T5 construct: A1 ARs of rat brain cortical membrane; from tissue; host or cells: rat brain cortex membranes
T5 sequence (P25099 1-326): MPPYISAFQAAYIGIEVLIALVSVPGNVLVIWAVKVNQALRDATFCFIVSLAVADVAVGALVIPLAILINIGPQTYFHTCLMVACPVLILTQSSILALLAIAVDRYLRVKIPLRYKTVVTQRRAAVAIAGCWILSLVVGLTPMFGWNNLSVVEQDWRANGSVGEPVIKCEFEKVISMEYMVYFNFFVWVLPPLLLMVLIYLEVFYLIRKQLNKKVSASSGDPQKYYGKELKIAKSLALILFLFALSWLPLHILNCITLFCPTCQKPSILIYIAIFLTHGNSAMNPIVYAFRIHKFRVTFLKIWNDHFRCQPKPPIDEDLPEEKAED
Method: as §1, §2

[6] = biological target: T6, recombinant human MAO-A (Homo sapiens, UniProt P21397); assay: Monoamine oxidase assay (Amplex Red), MAO-A; type: biochemical; conditions: for inhibition at 10 µM: at 10,000 nM, read-out: % inhibition at indicated concentration, Human MAO-A; for IC50: n = 3, read-out: IC50 ± SEM, Human MAO-A
T6 construct: purchased Sigma-Aldrich M7316; host or cells: baculovirus-infected insect cells
T6 sequence (P21397 1-527): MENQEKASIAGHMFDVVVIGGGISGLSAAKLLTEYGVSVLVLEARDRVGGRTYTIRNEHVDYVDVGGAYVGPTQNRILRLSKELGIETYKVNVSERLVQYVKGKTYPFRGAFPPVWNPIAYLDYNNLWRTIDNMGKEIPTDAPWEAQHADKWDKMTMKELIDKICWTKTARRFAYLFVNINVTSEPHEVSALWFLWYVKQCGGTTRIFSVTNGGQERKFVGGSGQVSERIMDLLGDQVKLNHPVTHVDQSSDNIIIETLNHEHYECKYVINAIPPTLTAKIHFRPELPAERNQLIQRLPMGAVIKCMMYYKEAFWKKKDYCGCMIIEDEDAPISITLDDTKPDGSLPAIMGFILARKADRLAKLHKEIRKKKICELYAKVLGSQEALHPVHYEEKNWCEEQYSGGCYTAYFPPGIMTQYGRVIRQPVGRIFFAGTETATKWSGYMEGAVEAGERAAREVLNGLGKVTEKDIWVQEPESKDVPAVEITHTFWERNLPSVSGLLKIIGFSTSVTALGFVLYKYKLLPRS
Method: as §3

[7] = biological target: T7, human A1 AR (Homo sapiens, UniProt P30542); assay: Radioligand binding assay at human A1 AR vs. [^3H]CCPA; conditions: human (h); CHO cell membranes; n = 3
T7 construct: expressed in transfected cells; host or cells: CHO cells
T7 sequence (P30542 1-326): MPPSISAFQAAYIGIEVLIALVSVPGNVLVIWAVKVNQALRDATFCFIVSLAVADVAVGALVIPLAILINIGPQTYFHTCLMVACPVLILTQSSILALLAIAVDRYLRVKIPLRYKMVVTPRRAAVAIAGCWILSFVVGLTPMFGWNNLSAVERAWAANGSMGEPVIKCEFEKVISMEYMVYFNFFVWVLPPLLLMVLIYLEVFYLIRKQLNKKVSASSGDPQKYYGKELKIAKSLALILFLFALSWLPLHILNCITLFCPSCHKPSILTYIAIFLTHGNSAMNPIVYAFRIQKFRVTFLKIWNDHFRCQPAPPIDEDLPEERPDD
Method: as §1, §2

T4 sequence (P30543 whole entry): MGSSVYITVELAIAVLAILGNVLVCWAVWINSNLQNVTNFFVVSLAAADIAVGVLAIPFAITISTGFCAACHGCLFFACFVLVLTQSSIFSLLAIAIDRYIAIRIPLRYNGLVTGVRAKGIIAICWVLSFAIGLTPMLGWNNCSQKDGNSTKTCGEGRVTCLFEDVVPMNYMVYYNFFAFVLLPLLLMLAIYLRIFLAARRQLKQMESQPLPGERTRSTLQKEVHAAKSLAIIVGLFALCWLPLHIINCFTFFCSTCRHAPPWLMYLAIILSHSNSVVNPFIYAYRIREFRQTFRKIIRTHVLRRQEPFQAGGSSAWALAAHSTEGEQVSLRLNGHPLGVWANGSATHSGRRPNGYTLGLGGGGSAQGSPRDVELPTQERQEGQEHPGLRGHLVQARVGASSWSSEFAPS

Ki [1] | inhibition at 1 µM [1] | IC50 ([2]; n = 3) | Ki [3] | % inhibition of radioligand binding at indicated concentration, A2A vs. [^3H]MSX-2 [4] | Ki [4] | Ki [5] | inhibition at 1.5 µM [5] | inhibition at 10 µM [6] | IC50 [6] | IC50 ± SEM, Human MAO-B ([2]; n = 3) | inhibition at 10 µM [3] | inhibition at 10 µM [2] | Ki [7] | SMILES
> 1 µM | 1% | 4.53 µM | 14.7 µM | -23% | > 1 µM | > 1.5 µM | 17% | 13% | > 10 µM | – | – | – | – | Cn1c(=O)[nH]c(=O)c2c1nc1n2CCN(Cc2ccccc2Br)C1 [Compound 13a, 8-(2-bromobenzyl)-1-methyl-6,7,8,9-tetrahydropyrazino[2,1-f]purine-2,4(1H,3H)-dione]
> 1 µM | 1% | 2.88 µM | 17.2 µM | 19% | > 1 µM | > 1.5 µM | 5% | 13% | > 10 µM | – | – | – | – | Cn1c(=O)[nH]c(=O)c2c1nc1n2CCN(CCc2ccc(Cl)cc2Cl)C1 [Compound 13f, 8-(2,4-dichlorophenethyl)-1-methyl-6,7,8,9-tetrahydropyrazino[2,1-f]purine-2,4(1H,3H)-dione]
> 1 µM | 1% | 0.864 ± 0.064 µM | > 10 µM | 10% | > 1 µM | > 1.5 µM | 3% | 12% | > 10 µM | submicromolar range | 41% | – | – | Cn1c(=O)[nH]c(=O)c2c1nc1n2CCN(CCc2ccc(Cl)c(Cl)c2)C1 [Compound 13g, 8-(3,4-dichlorophenethyl)-1-methyl-6,7,8,9-tetrahydropyrazino[2,1-f]purine-2,4(1H,3H)-dione]
> 1 µM | 9% | > 10 µM | > 10 µM | 7% | > 1 µM | 0.164 ± 0.028 µM | – | – | – | – | 37% | 24% | 5.12 µM | CCn1c(=O)c2c(nc3n2CCN(Cc2ccc(F)cc2)C3)n(C)c1=O [Compound 14h, 3-ethyl-8-(4-fluorobenzyl)-1-methyl-6,7,8,9-tetrahydropyrazino[2,1-f]purine-2,4(1H,3H)-dione]
> 1 µM | 8% | > 10 µM | > 10 µM | – | 1.1 µM | 0.142 ± 0.032 µM | – | – | – | – | 17% | 43% | 0.197 ± 0.005 µM | CCn1c(=O)c2c(nc3n2CCN(Cc2c(Cl)cccc2Cl)C3)n(C)c1=O [Compound 14k, 8-(2,6-dichlorobenzyl)-3-ethyl-1-methyl-6,7,8,9-tetrahydropyrazino[2,1-f]purine-2,4(1H,3H)-dione]
> 1 µM | 12% | > 10 µM | 7.82 µM | – | 2 µM | 0.032 ± 0.0009 µM | – | – | – | – | – | 22% | 0.156 ± 0.005 µM | CCn1c(=O)c2c(nc3n2CCN(Cc2ccccc2F)C3)n(CC)c1=O [Compound 15a, 1,3-diethyl-8-(2-fluorobenzyl)-6,7,8,9-tetrahydropyrazino[2,1-f]purine-2,4(1H,3H)-dione]
> 1 µM | 33% | 3.07 µM | > 10 µM | 30% | > 1 µM | > 1.5 µM | 19% | 8% | > 10 µM | – | 36% | – | – | CCn1c(=O)c2c(nc3n2CCN(Cc2ccc(F)c(C(F)(F)F)c2)C3)n(CC)c1=O [Compound 15i, 1,3-diethyl-8-(4-fluoro-3-(trifluoromethyl)benzyl)-6,7,8,9-tetrahydropyrazino[2,1-f]purine-2,4(1H,3H)-dione]

Source: PMC6028563, “Probing Substituents in the 1- and 3-Position: Tetrahydropyrazino-Annelated Water-Soluble Xanthine Derivatives as Multi-Target Drugs With Potent Adenosine Receptor Antagonistic Activity” (Frontiers in Chemistry, 2018)
